Reference: the NIST ThermoML archive (doi:10.1021/je049776w)

Assay: xn = mol fraction of the nth substance listed
Conditions: 101.3 kPa, Liquid

Cc1ccc(C)cc1 [1,4-dimethylbenzene] + CCCCCCCC
Conditions | mass density [kg/m3] | viscosity [mPa·s]
298.15 K, x1 = 0.1068 | 712.9 | 0.5185
298.15 K, x1 = 0.2121 | 726.39 | 0.5172
298.15 K, x1 = 0.3156 | 740.39 | 0.5216
298.15 K, x1 = 0.4178 | 755.01 | 0.5273
298.15 K, x1 = 0.5184 | 770.21 | 0.5297
298.15 K, x1 = 0.6174 | 786.05 | 0.5393
298.15 K, x1 = 0.7152 | 802.61 | 0.5515
298.15 K, x1 = 0.8113 | 819.83 | 0.5678
298.15 K, x1 = 0.9065 | 837.91 | 0.5905
298.15 K, x1 = 1 | 856.7 | 0.6162
303.15 K, x1 = 0.1068 | 708.71 | 0.4829
303.15 K, x1 = 0.2121 | 722.17 | 0.4825
303.15 K, x1 = 0.3156 | 736.15 | 0.4833
303.15 K, x1 = 0.4178 | 750.77 | 0.4919
303.15 K, x1 = 0.5184 | 765.93 | 0.493
303.15 K, x1 = 0.6174 | 781.76 | 0.502
303.15 K, x1 = 0.7152 | 798.3 | 0.5139
303.15 K, x1 = 0.8113 | 815.51 | 0.5299
303.15 K, x1 = 0.9065 | 833.52 | 0.5489
303.15 K, x1 = 1 | 852.35 | 0.5715
313.15 K, x1 = 0.1068 | 700.44 | 0.4298
313.15 K, x1 = 0.2121 | 713.85 | 0.4298
313.15 K, x1 = 0.3156 | 727.78 | 0.4331
313.15 K, x1 = 0.4178 | 742.31 | 0.4373
313.15 K, x1 = 0.5184 | 757.45 | 0.4418
313.15 K, x1 = 0.6174 | 773.23 | 0.4483
313.15 K, x1 = 0.7152 | 789.72 | 0.4586
313.15 K, x1 = 0.8113 | 806.89 | 0.4722
313.15 K, x1 = 0.9065 | 824.89 | 0.4895
313.15 K, x1 = 1 | 843.64 | 0.508
323.15 K, x1 = 0.1068 | 692.26 | 0.3877
323.15 K, x1 = 0.2121 | 705.6 | 0.3903
323.15 K, x1 = 0.3156 | 719.47 | 0.3901
323.15 K, x1 = 0.4178 | 733.93 | 0.3952
323.15 K, x1 = 0.5184 | 749.01 | 0.3997
323.15 K, x1 = 0.6174 | 764.73 | 0.4057
323.15 K, x1 = 0.7152 | 781.17 | 0.4143
323.15 K, x1 = 0.8113 | 798.31 | 0.4269
323.15 K, x1 = 0.9065 | 816.2 | 0.4409
323.15 K, x1 = 1 | 834.9 | 0.4599
333.15 K, x1 = 0.1068 | 683.83 | 0.3528
333.15 K, x1 = 0.2121 | 697.15 | 0.3552
333.15 K, x1 = 0.3156 | 710.96 | 0.3571
333.15 K, x1 = 0.4178 | 725.38 | 0.3617
333.15 K, x1 = 0.5184 | 740.41 | 0.3671
333.15 K, x1 = 0.6174 | 756.08 | 0.3753
333.15 K, x1 = 0.7152 | 772.47 | 0.3858
333.15 K, x1 = 0.8113 | 789.52 | 0.3961
333.15 K, x1 = 0.9065 | 807.43 | 0.4138
333.15 K, x1 = 1 | 826.09 | 0.4298
343.15 K, x1 = 0.1068 | 675.29 | 0.3167
343.15 K, x1 = 0.2121 | 688.57 | 0.3164
343.15 K, x1 = 0.3156 | 702.32 | 0.3185
343.15 K, x1 = 0.4178 | 716.69 | 0.3223
343.15 K, x1 = 0.5184 | 731.68 | 0.3271
343.15 K, x1 = 0.6174 | 747.3 | 0.3329
343.15 K, x1 = 0.7152 | 763.64 | 0.341
343.15 K, x1 = 0.8113 | 780.65 | 0.3481
343.15 K, x1 = 0.9065 | 798.53 | 0.3588
343.15 K, x1 = 1 | 817.17 | 0.3783
353.15 K, x1 = 0.1068 | 666.51 | 0.2856
353.15 K, x1 = 0.2121 | 679.75 | 0.2877
353.15 K, x1 = 0.3156 | 693.48 | 0.2897
353.15 K, x1 = 0.4178 | 707.82 | 0.2939
353.15 K, x1 = 0.5184 | 722.78 | 0.2984
353.15 K, x1 = 0.6174 | 738.37 | 0.3016
353.15 K, x1 = 0.7152 | 754.7 | 0.3113
353.15 K, x1 = 0.8113 | 771.7 | 0.3174
353.15 K, x1 = 0.9065 | 789.57 | 0.3264
353.15 K, x1 = 1 | 808.22 | 0.3382

Cc1ccc(C)cc1 [1,4-dimethylbenzene] + CN1CCCC1=O
Conditions | mass density [kg/m3] | viscosity [mPa·s]
303.15 K, x1 = 0.0947 | 1005.71 | 1.359
303.15 K, x1 = 0.1893 | 988.37 | 1.239
303.15 K, x1 = 0.2858 | 971.07 | 1.129
303.15 K, x1 = 0.3838 | 953.82 | 1.02
303.15 K, x1 = 0.483 | 936.56 | 0.9203
303.15 K, x1 = 0.5836 | 919.47 | 0.8327
303.15 K, x1 = 0.6854 | 902.73 | 0.7753
303.15 K, x1 = 0.7888 | 885.85 | 0.7001
303.15 K, x1 = 0.8937 | 869.04 | 0.6291
303.15 K, x1 = 1 | 852.35 | 0.5715
313.15 K, x1 = 0.0947 | 996.79 | 1.173
313.15 K, x1 = 0.1893 | 979.45 | 1.07
313.15 K, x1 = 0.2858 | 962.14 | 0.9754
313.15 K, x1 = 0.3838 | 944.9 | 0.8894
313.15 K, x1 = 0.483 | 927.68 | 0.807
313.15 K, x1 = 0.5836 | 910.56 | 0.7296
313.15 K, x1 = 0.6854 | 893.86 | 0.6862
313.15 K, x1 = 0.7888 | 877.02 | 0.619
313.15 K, x1 = 0.8937 | 860.27 | 0.5579
313.15 K, x1 = 1 | 843.64 | 0.508
323.15 K, x1 = 0.0947 | 987.88 | 1.023
323.15 K, x1 = 0.1893 | 970.53 | 0.9373
323.15 K, x1 = 0.2858 | 953.21 | 0.8571
323.15 K, x1 = 0.3838 | 935.97 | 0.7795
323.15 K, x1 = 0.483 | 918.77 | 0.7084
323.15 K, x1 = 0.5836 | 901.68 | 0.6521
323.15 K, x1 = 0.6854 | 884.99 | 0.6084
323.15 K, x1 = 0.7888 | 868.16 | 0.5517
323.15 K, x1 = 0.8937 | 851.46 | 0.4998
323.15 K, x1 = 1 | 834.9 | 0.4599
333.15 K, x1 = 0.0947 | 978.93 | 0.9019
333.15 K, x1 = 0.1893 | 961.55 | 0.8316
333.15 K, x1 = 0.2858 | 944.23 | 0.7602
333.15 K, x1 = 0.3838 | 926.99 | 0.694
333.15 K, x1 = 0.483 | 909.8 | 0.6321
333.15 K, x1 = 0.5836 | 892.71 | 0.5828
333.15 K, x1 = 0.6854 | 876.03 | 0.5437
333.15 K, x1 = 0.7888 | 859.21 | 0.4947
333.15 K, x1 = 0.8937 | 842.56 | 0.4504
333.15 K, x1 = 1 | 826.09 | 0.4298
343.15 K, x1 = 0.0947 | 969.95 | 0.8009
343.15 K, x1 = 0.1893 | 952.56 | 0.7371
343.15 K, x1 = 0.2858 | 935.23 | 0.681
343.15 K, x1 = 0.3838 | 917.98 | 0.6209
343.15 K, x1 = 0.483 | 900.82 | 0.5686
343.15 K, x1 = 0.5836 | 883.72 | 0.5173
343.15 K, x1 = 0.6854 | 867.04 | 0.4921
343.15 K, x1 = 0.7888 | 850.22 | 0.4476
343.15 K, x1 = 0.8937 | 833.61 | 0.4081
343.15 K, x1 = 1 | 817.17 | 0.3783
353.15 K, x1 = 0.0947 | 960.94 | 0.7219
353.15 K, x1 = 0.1893 | 943.54 | 0.6637
353.15 K, x1 = 0.2858 | 926.19 | 0.6119
353.15 K, x1 = 0.3838 | 908.93 | 0.561
353.15 K, x1 = 0.483 | 891.78 | 0.5127
353.15 K, x1 = 0.5836 | 874.66 | 0.4761
353.15 K, x1 = 0.6854 | 857.97 | 0.4466
353.15 K, x1 = 0.7888 | 841.16 | 0.4072
353.15 K, x1 = 0.8937 | 824.56 | 0.3726
353.15 K, x1 = 1 | 808.22 | 0.3382
